According to PMC4829254, “Complex Minigene Library Vaccination for Discovery of Pre-Erythrocytic Plasmodium T Cell Antigens” (PLoS ONE, 2016):
Peptide text beside a SMILES is read from it.

Biological target: T1, H2-K^d (Mus musculus, UniProt P01902)
T1 construct: expressed in transfected cells; host or cells: RMA/S lymphoma cell line expressing H2-K^d
T1 sequence (P01902 22-368): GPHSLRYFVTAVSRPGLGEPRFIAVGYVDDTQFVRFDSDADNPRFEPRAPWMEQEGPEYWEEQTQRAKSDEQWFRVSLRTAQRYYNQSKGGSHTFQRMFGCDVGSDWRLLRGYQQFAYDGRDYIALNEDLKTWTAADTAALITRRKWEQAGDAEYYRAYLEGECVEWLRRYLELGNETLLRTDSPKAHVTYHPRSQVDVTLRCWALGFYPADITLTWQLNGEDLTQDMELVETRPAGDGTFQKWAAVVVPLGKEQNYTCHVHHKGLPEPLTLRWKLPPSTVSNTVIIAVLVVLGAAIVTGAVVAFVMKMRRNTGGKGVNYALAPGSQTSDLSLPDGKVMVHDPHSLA
T1 sequence (P01887 21-119 partner): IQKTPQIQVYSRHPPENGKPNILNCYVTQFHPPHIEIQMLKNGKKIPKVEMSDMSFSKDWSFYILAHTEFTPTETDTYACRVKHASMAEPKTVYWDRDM
Assay: MHC binding assay (RMA/S cells expressing H2-K^d)
Set-up: species or system murine
Conditions: H2-K^d stabilization, read-out: apparent Kd
Procedure: RMA/S cells expressing H2-K^d were used to test MHC binding as described.
The affinity of SYQKSINNI for H2-K^d was determined using an RMA/S lymphoma cell line expressing H2-Kd as previously described.
Fig 4 The PyMDH epitope binds to murine H2-K^d. RMA/S cells expressing H2-K^d were incubated with peptides for PyCSP (squares), PyMDH (circles) or non-specific peptide. PyCSP and PyMDH peptides stabilized H2-K^d, indicative of specific MHC binding. Error bars indicate the 95% confidence interval.

Row | Structure (SMILES) | Kd [nM]
1 | CC[C@H](C)[C@H](NC(=O)[C@H](CCC(N)=O)NC(=O)[C@H](CCC(=O)O)NC(=O)[C@H](C)NC(=O)[C@H](CO)NC(=O)[C@@H]1CCCN1C(=O)[C@@H](NC(=O)[C@H](Cc1ccc(O)cc1)NC(=O)[C@@H](N)CO)C(C)C)C(=O)O [PyCSP peptide] (H-SYVPSAEQI-OH) | 9.6
2 | CC[C@H](C)[C@H](NC(=O)[C@H](CC(N)=O)NC(=O)[C@H](CC(N)=O)NC(=O)[C@@H](NC(=O)[C@H](CO)NC(=O)[C@H](CCCCN)NC(=O)[C@H](CCC(N)=O)NC(=O)[C@H](Cc1ccc(O)cc1)NC(=O)[C@@H](N)CO)[C@@H](C)CC)C(=O)O [PyMDH peptide] (H-SYQKSINNI-OH) | 11.6
